Patent US20230304058A1, “NOVEL 5'CAP ANALOG HAVING CAP2 STRUCTURE AND PREPARATION METHOD THEREFOR” (Shenzhen Rhegen Biotechnology Co., Ltd., priority 2020, published 2023)

Tests used:
[1] = system: TLR3, TLR7, TLR8 and RIG-1; experiment: Intracellular immunogenicity of capped mRNA by RNA immunoprecipitation and quantitative PCR; format: cell-based; conditions: relative to ARCA; Human-derived PBMC cells, 5 μg mRNA, Lipofectamine 2000, 24 h
Experimental: Experimental methods: the intracellular immunoproteins TLR3, TLR7, TLR8 and RIG-1 were immunoprecipitated together with their bound RNAs by RNA immunoprecipitation, and finally these mRNAs were identified by real-time quantitative PCR, and their relative abundance was proportional to their immunogenicity.
The cells were collected by trypsin digestion 24 h later and resuspended in PBS, centrifuged, and collected.
Fixative was added to the cells, and after 15 minutes glycine was added for termination of fixation, followed by centrifugation to collect the cells. Cells were resuspended by adding lysate, incubated on ice at 4° C. for 30 min, centrifuged at 2400 g for 10 min, and the supernatant was collected.
TLR3, TLR7, TLR8 and RIG-1 antibodies (2-10 μg) were added to the supernatant (6-10 mg) followed by gentle incubation at 4° C. for 2 hours. Protein AIG beads (40 μL) were then added to them and incubated gently for 1 h at 4° C.
Centrifuge at 2500 rpm for 30 seconds with precipitated magnetic beads and remove the supernatant. Resuspend the beads in 500 μL of RIP buffer. Wash in RIP buffer a total of three times, followed by one wash in PBS.
Resuspend magnetic beads in TRIzol RNA Extraction Reagent (1 mL) and isolate co-precipitated RNA, and then elute RNA using nuclease-free water (20 μL).
6. Reverse transcribe (RT) the RNA into cDNA and design primers according to the mRNA sequence for quantitative PCR analysis. mRNA immunogenicity is proportional to the number of mRNA copies precipitated by magnetic beads.

T7 Enzyme Mix [2] = molecular target: T1, T7 Enzyme Mix (Escherichia phage T7, UniProt P00573); conditions: background, co-transcriptional capping; cited from earlier work
mRNA [3] = conditions: background, co-transcriptional capping; cited from earlier work
[4] = background; cited from earlier work
T7 Enzyme Mix [5] = molecular target: T1, T7 Enzyme Mix; experiment: In vitro transcription mRNA synthesis with cap analog, reaction yield; format: biochemical; conditions: per ml transcription reaction system; 37° C. for 6 h; LiCl purification
Experimental: 1. Before synthesizing mRNA, linearize the plasmid with Notl, digested at […] overnight;
2. Extract with DNA template;
React at 37° C. for 6 h. Digest with TURBO DNase for 15 min.
4. Purify the transcription products using LiCl solution and calculate the reaction yields.

mRNA [6] = experiment: mRNA capping rate by RNase H cleavage and LC-MS; format: biochemical; conditions: ratio of capped and uncapped mRNA
Description: The mRNA molecules with different Cap structures obtained in Example 1 were subjected to enzymatic cleavage, and the ratio of capped and uncapped mRNA molecules could be determined in a liquid chromatography-mass spectrometry analysis experiment.
1. Concentrate the beads using a magnet, aspirate the supernatant storage solution, and add an equal volume of 0.1 M NaOH +0.05 M NaCl;
2. Aspirate the supernatant and resuspend the beads with an equal volume of 0.1 M NaCl, keep the concentration constant;
3. Anneal mRNA and cleavage tags, configure the following reaction system;
Gradient annealing: 95° C. 5 min
4. Combining cleavage tags with beads • Beads were centrifuged at 15,000 g for 5 min, and the supernatant was removed, then 120 μl of annealed mRNA and tags were added and incubated for 30 min at room temperature, during which time they were gently shaken to ensure adequate binding.
5. Enzyme cleavage using RNase H; • Add 10 μl RNase H and incubate at 37° C. for 3 h. Precipitate the beads with magnet and discard the supernatant. • Add 100 μl washing buffer, mix thoroughly, magnet precipitate for 2 min, and discard the supernatant. Repeat 3 times. • Wash with DI water for 3 times.
6. Hydrolysis with RppH; • Use 10 units RppH in nebuffer 2 to hydrolyze at room temperature for 1 h.
DI water was aspirated, 100 μl of 75% ethanol preheated to 80° C. was added, incubat for 3 min, and magnet precipitat for 3 min. The supernatant was taken, followed by evaporating, and centrifuge for 45 min to a volume of 10 μl. Finally, the sample was resuspended in 50 μl of […] EDTA/1% MeOH and left for LC-MS analysis.
9. the mRNA capping rate of different Cap analogs synthesized was analyzed with LC-MS.

T1 sequence (P00573 whole entry): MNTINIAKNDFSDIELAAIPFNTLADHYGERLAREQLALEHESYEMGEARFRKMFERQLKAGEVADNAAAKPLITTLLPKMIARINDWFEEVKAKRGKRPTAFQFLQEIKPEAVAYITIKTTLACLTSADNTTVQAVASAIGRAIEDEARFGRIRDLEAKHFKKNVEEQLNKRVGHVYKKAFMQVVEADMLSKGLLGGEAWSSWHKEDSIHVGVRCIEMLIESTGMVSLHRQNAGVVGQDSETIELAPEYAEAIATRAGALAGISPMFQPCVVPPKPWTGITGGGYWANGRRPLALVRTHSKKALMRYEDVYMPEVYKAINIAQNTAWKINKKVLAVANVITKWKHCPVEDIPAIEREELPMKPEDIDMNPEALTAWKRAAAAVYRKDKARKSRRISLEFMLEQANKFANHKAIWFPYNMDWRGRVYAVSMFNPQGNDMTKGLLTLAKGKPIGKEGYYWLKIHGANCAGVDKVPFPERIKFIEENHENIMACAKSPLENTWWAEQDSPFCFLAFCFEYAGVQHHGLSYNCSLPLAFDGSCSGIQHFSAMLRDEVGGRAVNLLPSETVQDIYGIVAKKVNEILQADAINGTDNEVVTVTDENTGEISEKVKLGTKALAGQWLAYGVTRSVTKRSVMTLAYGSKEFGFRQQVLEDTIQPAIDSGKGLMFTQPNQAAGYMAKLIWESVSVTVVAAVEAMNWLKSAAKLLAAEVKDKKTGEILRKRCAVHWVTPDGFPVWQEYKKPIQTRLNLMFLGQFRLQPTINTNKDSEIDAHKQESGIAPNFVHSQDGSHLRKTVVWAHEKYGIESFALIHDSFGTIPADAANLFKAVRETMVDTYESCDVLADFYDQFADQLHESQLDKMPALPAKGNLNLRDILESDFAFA

Row | Structure (SMILES) | Intracellular immunogenicity of mRNA when using different Cap structures [1] | RNA prepared per ml of transcription reaction system (T7 Enzyme Mix [2]) [mg] | capping efficiency (mRNA [3]) [%] | immunogenicity of transcribed product [4] | Mass of final product obtained from 1 ml mRNA synthesis reaction system (T7 Enzyme Mix [5]) [mg] | mRNA capping rates when using different Cap structures (mRNA [6]) [%]
1 | CO[C@H]1[C@@H](O)[C@H](n2c[n+](C)c3c(=O)[nH]c(N)nc32)O[C@@H]1COP(=O)(O)OP(=O)(O)OP(=O)(O)OC[C@H]1O[C@@H](n2cnc3c(=O)[nH]c(N)nc32)[C@H](O)[C@@H]1O [ARCA] | 1 | ≤ 1.5 | 70 | highly immunogenic | – | –
2 | COC1C(OP(=O)(O)OCC2OC(n3cnc4c(=O)[nH]c(N)nc43)C(O)C2O)C(COP(=O)(O)OP(=O)([O-])OP(=O)(O)OCC2OC(n3c[n+](C)c4c(=O)[nH]c(N)nc43)C(O)C2O)OC1n1cnc2c(N)ncnc21 (centres unmarked) [Cleancap] | 0.76 | 4 | 90 | less immunogenic than ARCA | – | –
3 | CO[C@@H]1[C@H](OP(=O)(O)OC[C@H]2O[C@@H](n3cnc4c(=O)[nH]c(N)nc43)[C@H](OC)[C@@H]2O)[C@@H](COP(=O)(O)OP(=O)(O)OP(=O)([O-])OC[C@H]2O[C@@H](n3c[n+](C)c4c(=O)[nH]c(N)nc43)[C@H](O)[C@@H]2O)O[C@H]1n1ccc(=O)[nH]c1=O [Cap analog 4, m7G(5′)ppp(5′)(2′OMeU)p(2′OMeG)] | 0.48 | – | – | – | 4.7 | 94.72
4 | CO[C@@H]1[C@H](O)[C@@H](COP(=O)(O)O[C@H]2[C@@H](OC)[C@H](n3cnc4c(N)ncnc43)O[C@@H]2COP(=O)(O)OP(=O)(O)OP(=O)([O-])OC[C@H]2O[C@@H](n3c[n+](C)c4c(=O)[nH]c(N)nc43)[C@H](O)[C@@H]2O)O[C@H]1n1ccc(=O)[nH]c1=O [Cap analog 13, m7G(5′)ppp(5′)(2′OMeA)p(2′OMeU)] | 0.23 | – | – | – | 5.1 | 94.77
5 | CO[C@@H]1[C@H](O)[C@@H](COP(=O)(O)O[C@H]2[C@@H](OC)[C@H](n3cnc4c(N)ncnc43)O[C@@H]2COP(=O)(O)OP(=O)(O)OP(=O)([O-])OC[C@H]2O[C@@H](n3c[n+](C)c4c(=O)[nH]c(N)nc43)[C@H](O)[C@@H]2O)O[C@H]1n1cnc2c(N)ncnc21 [Cap analog 5, m7G(5′)ppp(5′)(2′OMeA)p(2′OMeA)] | 0.52 | – | – | – | 4.4 | 94.88
6 | CO[C@@H]1[C@H](OP(=O)(O)OC[C@H]2O[C@@H](n3cnc4c(N)ncnc43)[C@H](OC)[C@@H]2O)[C@@H](COP(=O)(O)OP(=O)(O)OP(=O)([O-])OC[C@H]2O[C@@H](n3c[n+](C)c4c(=O)[nH]c(N)nc43)[C@H](O)[C@@H]2OC)O[C@H]1n1ccc(N)nc1=O [Cap analog 23, 3-O-Me-m7G(5′)ppp(5′)(2′OMeC)p(2′OMeA)] | 0.41 | – | – | – | 4.5 | 94.65
7 | CO[C@@H]1[C@H](O)[C@@H](COP(=O)(O)O[C@H]2[C@@H](OC)[C@H](n3cnc4c(=O)[nH]c(N)nc43)O[C@@H]2COP(=O)(O)OP(=O)(O)OP(=O)([O-])OC[C@H]2O[C@@H](n3c[n+](C)c4c(=O)[nH]c(N)nc43)[C@H](O)[C@@H]2OC)O[C@H]1n1ccc(=O)[nH]c1=O [Cap analog 30, 3-O-Me-m7G(5′)ppp(5′)(2′OMeG)p(2′OMeU)] | 0.31 | – | – | – | 5.3 | 94.8
8 | CO[C@@H]1[C@H](O)[C@@H](COP(=O)(O)O[C@H]2[C@@H](OC)[C@H](n3ccc(=O)[nH]c3=O)O[C@@H]2COP(=O)(O)OP(=O)(O)OP(=O)([O-])OC[C@H]2O[C@@H](n3c[n+](C)c4c(=O)[nH]c(N)nc43)[C@H](O)[C@@H]2O)O[C@H]1n1ccc(N)nc1=O [Cap analog 12, m7G(5′)ppp(5′)(2′OMeU)p(2′OMeC)] | 0.19 | – | – | – | 4.9 | 94.86
9 | CO[C@@H]1[C@H](OP(=O)(O)OC[C@H]2O[C@@H](n3cnc4c(N)ncnc43)[C@H](OC)[C@@H]2O)[C@@H](COP(=O)(O)OP(=O)(O)OP(=O)([O-])OC[C@H]2O[C@@H](n3c[n+](C)c4c(=O)[nH]c(N)nc43)[C@H](O)[C@@H]2OC)O[C@H]1n1ccc(=O)[nH]c1=O [Cap analog 24, 3-O-Me-m7G(5′)ppp(5′)(2′OMeU)p(2′OMeA)] | 0.48 | – | – | – | 4.7 | 94.72
